US20080026084A1, “Method and composition for management of weight and blood sugar” (PhytoMyco Research Corporation, priority 2006, published 2008)

test system: not given; assay: not given; conditions: in vivo; cited from earlier work

Question: Which “decrease of the amount of fat absorbed from the diet” value does the source give for `CCCCCCCCCCC[C@@H](C[C@@H]1OC(=O)[C@H]1CCCCCC)OC(=O)[C@H](CC(C)C)NC=O` [Orlistat] here?
Answer: about 30%

test system: 3T3-L1 cells; assay: assays of this invention (lipolysis, inhibition of adipocyte differentiation, de-differentiation, leptin secretion); type: cell-based, mouse; conditions: not given
Excerpt: Method i): Oil Red O staining which stains fat droplets in fat cells and thereby gives a directly related indication of the level of adipogenesis as a function of the amount of staining of fat droplets.
Method ii): GPDH or […] is a key enzyme involved in the pathway of triglyceride synthesis in the glycolytic pathway. Adipocytes express highlevels of this enzyme. Therefore, a reduction in GPDH levels is indicative of inhibition of adipogenesis (prevention of fat accumulation in cells).
Method iii): Assay to observe de-differentiation of adipocytes to preadipocytes can be used to detect compounds and mixtures of compounds that are capable of breaking down existing stores of body fat. This assay identifies compounds and mixtures of compounds than induce the […] of adipocytes to preadipocytes and is quantitatively assessed by developing a color response using Oil Red O staining or by measuring GPDH levels as in methods i) and ii), respectively. Such compounds and mixtures of compounds as extracts of plants can have a direct effect on reducing weight because they cause fat cells to become non-fat cells (preadipocytes).
Method iv) Leptin Secretion assay can be used to determine the presence of leptin which is a product of the Ob gene. It is a hormone secreted by mature adipocytes that plays a role in regulating body fat storage. High levels of leptin circulating in the blood indicate hormonally that energy stores are high, and therefore mitigate the need for further food intake. Compounds or mixtures of compounds of this invention that increase leptin secretion can be administered orally to an overweight or obese person to reduce appetite in that person, and therefore to reduce food intake by that person.
In this assay, pre-adipocyte cells are seeded in 96-well plates and are induced to convert to adipocytes over the course of a 10-15 day treatment with […] reagents. After cells have converted to adipocytes, the cells are starved, and then subsequently treated with or exposed to test compounds or mixtures of compounds or extracts of plants or fractionated extracts of plants. The adipocytes are treated with test compounds in the presence of a surrounding cell medium. Over the course of 1 to 3 hours after exposure to the test compounds or mixture of compounds, the amount of glycerol present in the cell medium is measured. Glycerol and fatty acids are hydrolysis products of triglycerides, and glycerol is released from cells after enzymatic hydrolysis or breakdown of lipids. Results are expressed as a percentage of the amount of glycerol present detected in a reference assay comprising an untreated control. Untreated controls are cells that are treated with vehicle only (such as 100% DMSO).
Inhibition of adipocyte differentiation is assayed by measuring the levels of the enzyme glycerol-3-phosphate dehydrogenase (GPDH). GPDH is involved in the pathway of triglyceride synthesis in the glycolytic pathway. Colorimetric assays can be used to screen for compounds and mixtures of compounds than inhibit the differentiation of preadipocytes to adipocytes. Oil Red O is a colorimetric assay that can be used to stain lipids in adipocytes.
In this assay pre-adipocyte cells require 10 to 15 days to differentiate into adipocytes. […] After cells have undergone the 10-15 days required to differentiate, cells are assessed for GPDH activity.
Results are expressed as a percentage of the untreated control average. […]

Question: For `CC(=O)OC(C)(C)/C=C/C(=O)[C@](C)(O)[C@H]1[C@H](O)C[C@@]2(C)[C@@H]3CC=C4[C@H](C[C@H](O)C(=O)C4(C)C)[C@]3(C)C(=O)C[C@]12C` [cucurbitacin B], which “activity in the assays of this invention” value is on record?
Answer: active

Question: For `CC(C)(O)/C=C/C(=O)[C@](C)(O)[C@H]1[C@H](O)C[C@@]2(C)[C@@H]3CC=C4[C@@H](C[C@H](O)C(=O)C4(C)C)[C@]3(C)C(=O)C[C@]12C` [cucurbitacin D], which “activity in the assays of this invention” value is on record?
Answer: active

Question: With Cephalandrol as the compound, how does the “activity in the assays of this invention” value read?
Answer: active

Question: With Cephalandrine A as the compound, how does the “activity in the assays of this invention” value read?
Answer: active

Question: Which “activity in the assays of this invention” value does the source give for Cephalandrine B here?
Answer: active
